The values below come from patent publication US11331333B2, “Treatment of aberrant fibroblast proliferation” (Georg August Universitaet Goettingen Stiftung Oeffentlichen …, priority 2019, dated 2022).

Structures are written as SMILES.

In the assay the test system is EYA1A^tg mice challenged with UUO. Nature of the assay: Unilateral ureteral obstruction (UUO) kidney fibrosis in EYA1A^tg mice. The class given is in vivo, mouse. The conditions noted are these: Na3VO4 8 mg/kg or caffeine 12.5 mg/kg i.p. once per day; EYA1Atg mice, UUO. Here is the method:
From 3 days before surgery, C57BL/6 (referred as wildtype) or transgenic mice overexpressing human splice variants EYA1A (rtTACMV;hEYA1A-pTreTight, referred to as EYA1A^tg) and EYA1C (rtTACMV;hEYA1C-pTreTight, referred to as EYA1C^tg) were treated with either vehicle buffer (glucose 5%) or DOX (2 mg/ml, Sigma, St. Louis, USA) within drinking water ad libidum and renewal every 2 days.
Mice were anesthetized with isoflurane inhalation (2-3%), analgesia was performed by subcutaneous injection of 0.1 mg/kg body weight per day Buprenorphine. The ureter was separated from the surrounding tissues and two ligatures were placed about 5 mm apart in upper two-thirds of the left ureter to obtain reliable obstruction. Mice were sacrificed 3, 7 or 10 days after ureteral obstruction for further analyses.
Mice were injected intraperitoneally with Na3VO4 (8 mg/kg i.p. once per day, Sigma, St. Louis, USA) or caffeine (12.5 mg/kg i.p. once per day, Sigma, St. Louis, USA) starting one day prior of surgery, control mice received equivalent volume of PBS or DMSO.
Mice were injected intraperitoneally with SCR7 (20 mg/kg i.p. every alternate day, Sigma, St. Louis, USA) starting one day prior of surgery, control mice received equivalent volume of DMSO.
The inventors obtained 25 nucleotide antisense morpholino sequences (Gene Tools, Philomath, USA). The in vivo morpholinos contain a covalently linked octaguanidine dendrimer as a delivery moiety to facilitate entry into cells in vivo. Mice were injected intraperitoneally with 12.5 mg/kg body weight in vivo morpholinos in saline at a final volume of 100 μL every other day starting two days prior of surgery. A control in vivo
Lentiviral pLenti-Sce1 was produced in 293T virus packaging cells after transfection using morpholino that targets a human β-globin intron mutation was used as standard control. In vivo morpholino sequences are those of SEQ ID NOs: 9 (EYA1A-VMO), 10 (53Bp1-VMO) and 16 (control).
Formalin-fixed, paraffin-embedded kidneys and hearts from mice, and HOPE-fixed, paraffin-embedded human specimens were sectioned at 3 μm, Masson's Trichrome Stain (MTS) was performed at the University Medicine Göttingen. For morphometric analysis of interstitial fibrosis in mice and human biopsies, we assessed the fibrotic area using cellSens (Olympus, Tokyo, Japan) software. Ten visual fields were selected randomly for each MTS stained section at 200× magnification and the relative interstitial fibrotic area was evaluated by using a 10 mm^2 graticule.
Formalin-fixed, paraffin-embedded kidney sections from mice as well as from HOPE-fixed, paraffin-embedded human specimens were deparaffinized in xylene and rehydrated in ethanol containing distilled water. For immunofluorescent staining, EYA1 isoform antisera or primary antibodies against αSMA (A5228, Sigma, St. Louis, USA), Collagen-1 (ab34710, Abcam Biochemicals, Cambridge, UK), γH2A.X^pS139 (ab2893, Abcam Biochemicals, Cambridge, UK), γH2A.X^pS139 (05-636, Merck Millipore, Billerica, UK), γH2A.X^pY142 (ab94602, Abcam Biochemicals, Cambridge, UK), p-Chk1^pS317 (12302P, Cell Signaling, Danvers, USA), p-Chk2^pT68 (2197S, Cell Signaling, Danvers, USA), Rpa1 (2267S, Cell Signaling, Danvers, USA), Rad51 (sc-8349, Santa Cruz Biotechnology, Dallas, USA), 53Bp1 (sc-22760, Santa Cruz Biotechnology, Dallas, USA), Xrcc4 (sc-8285, Santa Cruz Biotechnology, Dallas, USA) and GFP (MA5-15256, Thermo Fisher Scientific, Waltham, USA) were used, secondary antibodies were labeled with Alexa Fluor 488, 594 or 647 (Life Technologies, Carlsbad, USA). Renal basement membranes were stained with antibodies against Collagen-4 (1340-30, SouthernBiotech, Birmingham, USA). Nuclear staining was performed using 4′,6-diamidino-2-phenylindole (DAPI, Vector Laboratories, Burlingame, USA). Quantifications were performed per high power field at 400× magnification, representative confocal pictures using an LSM 780 confocal laser scanning microscope (Zeiss, Oberkochen, Germany) are shown.

For `[Na+].[Na+].[Na+].[O]=[V]([O-])([O-])[O-]` [Na3VO4, sodium orthovanadate], the “impact of EYA1A overexpression on renal fibrogenesis” value is “reversed the enhancing impact” and the “γH2A.X^pY142 dephosphorylation” value was “effectively blocked”.

Regarding `Cn1c(=O)c2c(ncn2C)n(C)c1=O` [caffeine], the “impact of EYA1A overexpression on renal fibrogenesis” value was “reversed the enhancing impact” and the “γH2A.X^pY142 dephosphorylation” value was “effectively blocked”.
